Measured values taken from paper PMC4506051, “Pharmacokinetic Profiles of Active Ingredients and Its Metabolites Derived from Rikkunshito, a Ghrelin Enhancer, in Healthy Japanese Volunteers: A Cross-Over, Randomized Study” (PLoS ONE, 2015).

Key:
[1] = Exploratory trial: amount of rikkunshito ingredients in urine; format: in vivo, human; conditions: mean ± S.D., n = 4
Procedure, shortened: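 Subjects took single oral 7.5 g rikkunshito; urine collected pre-dose and 0–4 h and 4–8 h post-dose, stored at −80 °C or lower. Synephrine quantified by LC–MS/MS after plate cleanup with erythromycin IS; other ingredients after β-glucuronidase (2 h, 37 °C) and HLB solid-phase extraction.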

[2] = Stability of ingredients in gastric pH solution (pH 1.2, 37°C); format: physicochemical; conditions: for Stability in gastric pH solution, Quantitative value: rikkunshito in acidic solution (pH 1.2) at 37°C
Protocol: Rikkunshito gradually dissolved in acidic solution (pH 1.2) at 37°C, and the concentration of atractylodin after adding 0.25, 0.5, 1, and 2 h was measured by gas chromatography–mass spectrometry.

[3] = test system: ghrelin receptor (GHS-R); conditions: cited from earlier work
[4] = 7.5 g dosage; cited from earlier work
[5] = Method validation: stability in blood
[6] = Method validation: long-term stability in plasma
[7] = Method validation: post-preparative stability (autosampler); conditions: for Post-preparative stability, RR: autosampler set at 4°C
[8] = Method validation: stability in standard, stock and working solution; conditions: for Short-term stability of standard solution, RR: at room temperature for 24 h; for Stock solution stability, RR: 0.1 mg/mL (naringenin 0.5 mg/mL)
[9] = Dose proportionality (linearity) test by power model for C max and AUC0-last; conditions: for Dose proportionality test using power model, Inference: linear when 90% CI of β included 1, CIlower ≥0.8, and CIupper ≤1.25; for Dose proportionality test using power model, β: rikkunshito 2.5, 5.0 or 7.5 g
Protocol: The dose proportionality was analyzed via a power model [21, 22]. […] Evaluation of linearity of the dosage-exposure relationship was conducted with Phoenix WinNonlin and SAS 9.2 (SAS Institute, Inc., Cary, NC).

[10] = Formation of ingredients derived from rikkunshito in formulation, blood, and urine (S11 Table summary); conditions: after rikkunshito administration, per ingredient in the formulation; for Formation of ingredients: form found in Urine: BQL = below the quantification limit
[11] = test system: butyrylcholinesterase; conditions: cited from earlier work

C/C=C/C#CC#C/C=C/c1ccco1 [Atractylodin]
Amount in urine, 0–4 h ([1]; 0–4 h after single oral rikkunshito 7.5 g): 75.8 ± 152 ng | Amount in urine, 4–8 h ([1]; 4–8 h after single oral rikkunshito 7.5 g): BQL | Amount in urine, Pre ([1]; preadministration (between dinner and bedtime)): BQL | Stability in a solution with the same pH as that in the stomach ([2]; pH 1.2, 37°C, S10 Table): stable | Stability in gastric pH solution, Quantitative value ([2]; 0.5 h): 9.03 ng/mL | Stability in gastric pH solution, Quantitative value ([2]; 1 h): 9.72 ng/mL | Stability in gastric pH solution, Quantitative value ([2]; 2 h): 8.13 ng/mL | Known pharmacology activities: ghrelin signal [3]: Ghrelin signal enhancement effect [1] | Maximum plasma concentration in the preliminary pharmacokinetics study [4]: 1.84 ± 0.626 ng/mL | Stability in blood, remaining ratio (RR) ([5]; atractylodin 1.00 ng/mL, at room temperature for 2 h): 90.3% | Stability in blood, RR ([5]; atractylodin 1.00 ng/mL, on ice for 2 h): 93.8% | Long-term stability, RR ([6]; atractylodin 0.600 ng/mL, deep freezer, 15 days): 98.4% | Long-term stability, RR ([6]; atractylodin 0.600 ng/mL, deep freezer, 29 days): 88.7% | Long-term stability, RR ([6]; atractylodin 0.600 ng/mL, deep freezer, 57 days): 101.4% | Long-term stability, RR ([6]; atractylodin 0.600 ng/mL, deep freezer, 169 days): 95.2% | Long-term stability, RR ([6]; atractylodin 16.0 ng/mL, deep freezer, 15 days): 98.6% | Long-term stability, RR ([6]; atractylodin 16.0 ng/mL, deep freezer, 29 days): 98.6% | Long-term stability, RR ([6]; atractylodin 16.0 ng/mL, deep freezer, 57 days): 109.4 | Long-term stability, RR ([6]; atractylodin 16.0 ng/mL, deep freezer, 169 days): 102.8% | Post-preparative stability, RE ([7]; atractylodin 0.600 ng/mL, autosampler set at 4°C for 24 h): -3.8% | Post-preparative stability, RE ([7]; atractylodin 0.600 ng/mL, autosampler set at 4°C for 48 h): 4.0% | Post-preparative stability, RE ([7]; atractylodin 16.0 ng/mL, autosampler set at 4°C for 24 h): 9.0% | Post-preparative stability, RE ([7]; atractylodin 16.0 ng/mL, autosampler set at 4°C for 48 h): 8.7% | Short-term stability of standard solution, RR ([8]; atractylodin 1.00 ng/mL): 104.6% | Short-term stability of standard solution, RR ([8]; atractylodin 5000 ng/mL): 106.7% | Dose proportionality test using power model, Inference ([9]; AUC0-last): Nonlinear | Dose proportionality test using power model, β ([9]; AUC0-last): 1.60 | Dose proportionality test using power model, Inference ([9]; Cmax): Linear^a | Dose proportionality test using power model, β ([9]; Cmax): 0.988 | Formation of ingredients: form found in Urine [10]: Atractylodin

C=C(CC[C@@H](C(=O)O)[C@H]1[C@H](O)C[C@@]2(C)C3=C(CC[C@]12C)[C@@]1(C)CC[C@H](OC(C)=O)C(C)(C)[C@@H]1CC3)C(C)C [Pachymic acid]
Stability in gastric pH solution, Quantitative value ([2]; 0.5 h): 40.2 ng/mL | Stability in gastric pH solution, Quantitative value ([2]; 1 h): 46.5 ng/mL | Stability in gastric pH solution, Quantitative value ([2]; 2 h): 28.3 ng/mL | Butyrylcholinesterase inhibition [11]: inhibit butyrylcholinesterase | Known pharmacology activities: ghrelin metabolizing enzyme [11]: Ghrelin metabolizing enzyme inhibitory effect [17] | Maximum plasma concentration in the preliminary pharmacokinetics study [4]: 0.228 ± 0.116 ng/mL | Stability in blood, RR ([5]; on ice 2 h, higher concentration (800 / 320 / 4000 pg/mL)): 93.4% | Stability in blood, RR ([5]; on ice 2 h, lower concentration (20 / 8 / 100 pg/mL)): 103.1% | Stability in blood, RR ([5]; room temperature 2 h, higher concentration (pachymic acid 800, heptamethoxyflavone 320, naringenin 4000 pg/mL)): 91.8% | Stability in blood, RR ([5]; room temperature 2 h, lower concentration (pachymic acid 20, heptamethoxyflavone 8, naringenin 100 pg/mL)): 103.1% | Long-term stability, RR ([6]; freezer −30°C to −10°C, 13 days, lower concentration (pachymic acid 20, heptamethoxyflavone 8 pg/mL)): 110.9% | Long-term stability, RR ([6]; freezer, 13 days, higher concentration (pachymic acid 800, heptamethoxyflavone 320 pg/mL)): 113.9% | Long-term stability, RR ([6]; freezer, 39 days, higher concentration (800 / 320 pg/mL)): 107.6% | Long-term stability, RR ([6]; freezer, 39 days, lower concentration (20 / 8 pg/mL)): 104.1% | Long-term stability, RR ([6]; freezer, 228 days, higher concentration (800 / 320 pg/mL)): 92.5% | Long-term stability, RR ([6]; freezer, 228 days, lower concentration (20 / 8 pg/mL)): 89.6% | Post-preparative stability, RR ([7]; 24 h, higher concentration (pachymic acid 800, heptamethoxyflavone 320 pg/mL)): 88.4% | Post-preparative stability, RR ([7]; 24 h, lower concentration (pachymic acid 20, heptamethoxyflavone 8 pg/mL)): 92.4% | Post-preparative stability, RR ([7]; 48 h, higher concentration (800 / 320 / 4000 pg/mL)): 98.2% | Post-preparative stability, RR ([7]; 48 h, lower concentration (20 / 8 / 100 pg/mL)): 93.8% | Working solution stability, RR ([8]; refrigerator 53 days, higher concentration (pachymic acid 10, heptamethoxyflavone 4, naringenin 50 ng/mL)): 101.1% | Working solution stability, RR ([8]; refrigerator 53 days, lower concentration (pachymic acid 0.1, heptamethoxyflavone 0.04, naringenin 0.5 ng/mL)): 109.1% | Working solution stability, RR ([8]; refrigerator 128 days, higher concentration (10 / 4 / 50 ng/mL)): 113.2% | Working solution stability, RR ([8]; refrigerator 128 days, lower concentration (0.1 / 0.04 / 0.5 ng/mL)): 102.1% | Stock solution stability, RR ([8]; refrigerator (1°C to 8°C) 54 days): 54 days: 101.7% | Stock solution stability, RR ([8]; refrigerator (1°C to 8°C) 129 days): 129 days: 110.1% | Dose proportionality test using power model, Inference ([9]; AUC0-last): Nonlinear | Dose proportionality test using power model, β ([9]; AUC0-last): 1.39 | Dose proportionality test using power model, Inference ([9]; Cmax): Nonlinear | Dose proportionality test using power model, β ([9]; Cmax): 0.856 | Formation of ingredients: form found in Blood [10]: Pachymic acid | Formation of ingredients: form found in Urine [10]: BQL
